Test systems include 786-0 renal; COLO 205 colon; HCT-116 colon; HOP-92 NSCLC; OVCAR-4 ovarian; SK-MEL-2 melanoma; SK-OV-3 ovarian; SR leukemia.
Assay in all cases: DTP human tumour cell line panel, 48 h

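Results reflect a 48-hour exposure of cells in 96-well plates to compound at five concentrations. At the GI50, growth is halved. At the TGI there is no net growth.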

`C/C(=N\NC(=S)N1CC2CCC(CC2)C1)c1cccc(C)n1`: the TGI is 11.7 µM in the experiment with 786-0 renal; 11.1 µM in the experiment on COLO 205 colon; 2.78 µM in the experiment on HCT-116 colon; 16.4 µM in the experiment on HOP-92 NSCLC; 16.1 µM with OVCAR-4 ovarian; 21.4 µM in the experiment on SK-MEL-2 melanoma. Besides, the TGI in the experiment on SK-OV-3 ovarian was 7.47 µM; in the experiment on SR leukemia, over 32.9 µM. The GI50 in the experiment on COLO 205 colon was 0.000385 µM; in the experiment on OVCAR-4 ovarian it was 0.000172 µM; in the experiment on SR leukemia it was 0.21 µM.

Turning to `Nc1nc(N)c2c(n1)NC(c1ccccc1)C1CCc3ccccc3C1=N2` (configuration not stated), the GI50 was 5.99 µM with 786-0 renal; 3.07 µM with COLO 205 colon; 2.97 µM in the experiment with HCT-116 colon; 2.55 µM in the experiment on HOP-92 NSCLC; 3.06 µM with OVCAR-4 ovarian; 3.48 µM in the experiment on SK-MEL-2 melanoma. The GI50 is 10.3 µM with SK-OV-3 ovarian and 4.52 µM in the experiment with SR leukemia. The TGI stood at 19.1 µM in the experiment with 786-0 renal; 10.9 µM in the experiment with COLO 205 colon; 12.7 µM with HCT-116 colon; 10.8 µM in the experiment on HOP-92 NSCLC; 17.1 µM in the experiment with OVCAR-4 ovarian; 14 µM in the experiment with SK-MEL-2 melanoma. Moreover, the TGI in the experiment with SK-OV-3 ovarian is 22.7 µM; in the experiment on SR leukemia, over 100 µM.

With `C[C@]1(Cn2ccnn2)C(C(=O)O)N2C(=O)CC2S1(=O)=O` (some centres not stated), the GI50 in the experiment with 786-0 renal, in the experiment on COLO 205 colon, in the experiment with HCT-116 colon, with HOP-92 NSCLC, with OVCAR-4 ovarian and with SK-MEL-2 melanoma was over 100 µM in each case. Further, the GI50 in the experiment on SK-OV-3 ovarian and in the experiment on SR leukemia was over 100 µM each time. In addition, the TGI in the experiment on 786-0 renal, with COLO 205 colon, in the experiment on HCT-116 colon, with HOP-92 NSCLC, in the experiment on OVCAR-4 ovarian and in the experiment on SK-MEL-2 melanoma was over 100 µM in each case. Further, the total growth inhibition concentration (TGI) in the experiment with SK-OV-3 ovarian and in the experiment with SR leukemia was over 100 µM throughout.

Consider `N#Cc1c(N)nc(N)nc1N[C@H](c1nc2c(F)ccc(Cl)c2c(=O)n1-c1cccnc1)C1CC1`, for which the GI50 in the experiment on 786-0 renal is 0.363 µM; in the experiment on COLO 205 colon, 8.74 µM; in the experiment with HCT-116 colon, 11.6 µM; with HOP-92 NSCLC, 0.549 µM; in the experiment on OVCAR-4 ovarian it was 19.4 µM; in the experiment on SK-MEL-2 melanoma, 23.3 µM. Besides, the results for the GI50 in the experiment with SK-OV-3 ovarian and in the experiment on SR leukemia were 2.41 µM and 13.4 µM, respectively. In addition, the TGI in the experiment with 786-0 renal was 14.5 µM; in the experiment on COLO 205 colon, 25.8 µM; in the experiment with HCT-116 colon, 27.3 µM; in the experiment with HOP-92 NSCLC it was 7.59 µM; in the experiment with OVCAR-4 ovarian it was 87.1 µM; in the experiment on SK-MEL-2 melanoma, over 100 µM. The TGI with SK-OV-3 ovarian worked out at 11.4 µM; in the experiment with SR leukemia, 52.5 µM.

Take `CCCCN(CCCC)CCC(O)c1cc2c(Cl)cc(Cl)cc2c2cc(C(F)(F)F)ccc12` (configuration not stated): the TGI was 25.7 µM with 786-0 renal; 23.6 µM with COLO 205 colon; 25.2 µM in the experiment on HCT-116 colon; 10.6 µM in the experiment with HOP-92 NSCLC; 28.5 µM with OVCAR-4 ovarian; 30.2 µM with SK-MEL-2 melanoma. Further, the total growth inhibition concentration (TGI) in the experiment with SK-OV-3 ovarian came out at 26.9 µM; in the experiment with SR leukemia it was 28.9 µM.

Turning to `C[C@]12CC[C@H]3[C@@H](C[C@@H]4SC(Nc5ccccc5)=N[C@@]45CC(O)CC[C@]35C)[C@@H]1CCC2O` (some centres not stated), the GI50 was 1.22 µM with 786-0 renal; 2.45 µM in the experiment on COLO 205 colon; 1.51 µM in the experiment with HCT-116 colon; 2.84 µM in the experiment on HOP-92 NSCLC; 3.13 µM in the experiment on OVCAR-4 ovarian; 2.51 µM in the experiment with SK-MEL-2 melanoma. Further, the GI50 with SK-OV-3 ovarian is 5.16 µM; in the experiment on SR leukemia it was 0.241 µM. The TGI in the experiment on 786-0 renal amounted to 3.3 µM; in the experiment with COLO 205 colon, 5.61 µM; with HCT-116 colon, 3.01 µM; in the experiment on HOP-92 NSCLC, 6.77 µM; in the experiment on OVCAR-4 ovarian, 15.4 µM; in the experiment on SK-MEL-2 melanoma it was 5.64 µM. The TGI came out at 17.9 µM in the experiment on SK-OV-3 ovarian and 6.1 µM with SR leukemia.

Turning to `Oc1cccc(/C=N/Nc2nnc(N/N=C/c3cccc(O)c3)c3ccccc23)c1`, the TGI in the experiment on 786-0 renal was 38.5 µM; in the experiment with COLO 205 colon, over 100 µM; with HCT-116 colon, 43.1 µM; with HOP-92 NSCLC, 76.1 µM; in the experiment on OVCAR-4 ovarian, 82.6 µM; in the experiment on SK-MEL-2 melanoma, 83.6 µM. For the same compound, the TGI in the experiment on SK-OV-3 ovarian was over 100 µM; in the experiment on SR leukemia, 7.06 µM.

With `O=C(O)CCc1c2ccc(=O)c(O)c-2oc2c(O)c(O)ccc12`, the TGI in the experiment with 786-0 renal is over 100 µM; in the experiment on COLO 205 colon, over 100 µM; in the experiment with HCT-116 colon it was 59.5 µM; with HOP-92 NSCLC, over 100 µM; in the experiment with OVCAR-4 ovarian it was over 100 µM; in the experiment with SK-MEL-2 melanoma it was over 100 µM. Moreover, the concentration for total growth inhibition (TGI) in the experiment with SK-OV-3 ovarian and in the experiment with SR leukemia was over 100 µM throughout.

Take `COc1c(-c2ccc(O)c(O)c2)oc2c(O)c(O)cc(O)c2c1=O`: the concentration for total growth inhibition (TGI) with 786-0 renal, in the experiment on COLO 205 colon, in the experiment with HCT-116 colon, in the experiment with HOP-92 NSCLC, with OVCAR-4 ovarian and in the experiment on SK-MEL-2 melanoma was over 100 µM throughout. Besides, the results for the TGI in the experiment on SK-OV-3 ovarian and in the experiment on SR leukemia were over 100 µM and 50.8 µM, respectively.

These data come from PubChem BioAssay (NCI).
